In brackets after ≈: the same amount, converted by molar mass.
Tests used:
Type in all cases: cell-based
[1] = system: E. faecalis resistant to vancomycin; assay: Antibacterial activity, microdilution in culture broth (NCCLS), strain B; conditions: Enterococcus faecalis, G (+) hospital strain, inoculum 5×10^5 UFC/ml
From the text: (§1) The antibacterial activity of the new synthesised compounds on the various strains of the bacterial species was implemented using the technique of microdilution in culture broth according to the regulations of the National Committee for Clinical Laboratory Standards (NCCLS), (NCCLS. 1993. Methods for dilution antimicrobial susceptibility tests for bacteria that grow aerobically. Approved standard M7-A3. NCCLS, Vilanova. Pa., and NCCLS. 1993. Methods for dilution antimicrobial susceptibility tests for anaerobic bacteria […]. Approved standard M1-A3. NCCLS, Vilanova. Pa.).
(§2) The inoculum used was 5×10^5 UFC/ml following dilution of the cultures overnight in the exponential phase of bacterial growth.
(§3) The MIC expressed in mg/l was defined as the minimum concentration of antibiotic which inhibited any visible growth.
(§4) Linezolid was included as comparative compound.
(§5) The compounds were tested on the strains of G(+) and G(−) bacteria set out in Table 1, in which: […]

[2] = system: E. coli; assay: Antibacterial activity, microdilution in culture broth (NCCLS), strain H; conditions: Escherichia coli, G (−) hospital strain, inoculum 5×10^5 UFC/ml
From the text: as §1, §2, §3, §4, §5

[3] = system: S. pneumoniae resistant to penicillin; assay: Antibacterial activity, microdilution in culture broth (NCCLS), strain C; conditions: Streptococcus pneumoniae, G (+) hospital strain, inoculum 5×10^5 UFC/ml
From the text: as §1, §2, §3, §4, §5

[4] = system: S. agalactiae; assay: Antibacterial activity, microdilution in culture broth (NCCLS), strain D; conditions: Streptococcus agalactiae, G (+) hospital strain, inoculum 5×10^5 UFC/ml
From the text: as §1, §2, §3, §4, §5

[5] = system: S. epidermidis; assay: Antibacterial activity, microdilution in culture broth (NCCLS), strain E; conditions: Staphylococcus epidermidis, G (+) hospital strain, inoculum 5×10^5 UFC/ml
From the text: as §1, §2, §3, §4, §5

[6] = system: H. influenzae; assay: Antibacterial activity, microdilution in culture broth (NCCLS), strain I; conditions: Haemophilus influenzae, G (−) hospital strain, inoculum 5×10^5 UFC/ml
From the text: as §1, §2, §3, §4, §5

[7] = system: S. aureus resistant to meticillin; assay: Antibacterial activity, microdilution in culture broth (NCCLS), strain A; conditions: Staphylococcus aureus, G (+) hospital strain, inoculum 5×10^5 UFC/ml
From the text: as §1, §2, §3, §4, §5

[8] = system: B. fragilis; assay: Antibacterial activity, microdilution in culture broth (NCCLS), strain G (anaerobic); conditions: Bacteroides fragilis, anaerobic hospital strain, inoculum 5×10^5 UFC/ml
From the text: as §1, §2, §3, §4, §5

[9] = system: S. pyogenes; assay: Antibacterial activity, microdilution in culture broth (NCCLS), strain F; conditions: Streptococcus pyogenes, G (+) hospital strain, inoculum 5×10^5 UFC/ml
From the text: as §1, §2, §3, §5

[10] = system: M. Catarrahalis; assay: Antibacterial activity, microdilution in culture broth (NCCLS), strain J; conditions: G (−) hospital strain, inoculum 5×10^5 UFC/ml
From the text: as §1, §2, §3, §4, §5

Compound | MIC [1] | MIC [2] | MIC [3] | MIC [4] | MIC [5] | MIC [6] | MIC [7] | MIC [8] | MIC [9] | MIC [10]
CCn1cc(C(=O)O)c(=O)c2cc(F)c(N3CCN(c4ccc(N5C[C@H](CNC(C)=O)OC5=O)cc4F)CC3)cc21 [EXAMP. 4, 7-(4-{4-[5-(S)-(acetylamino-methyl)-2-oxo-oxazolidin-3-yl]-2-fluoro-phenyl}-piperazin-1-yl)-1-ethyl-6-fluoro-4-oxo-1,4-dihydro-quinoline-3-carboxylic Acid] | 0.25 µg/mL (≈ 0.439 µM) | 16 µg/mL (≈ 28.1 µM) | < 0.125 µg/mL | < 0.125 µg/mL | < 0.125 µg/mL | 2 µg/mL (≈ 3.51 µM) | 0.25 µg/mL (≈ 0.439 µM) | 0.5 µg/mL (≈ 0.878 µM) | < 0.125 µg/mL | 1 µg/mL (≈ 1.76 µM)
CCOC(=O)NC[C@H]1CN(c2ccc(N3CCN(c4cc5c(cc4F)c(=O)c(C(=O)O)cn5C4CC4)CC3)c(F)c2)C(=O)O1 [EXAMP. 11, 1-cyclopropyl-7-(4-{4-[5-(S)-(ethoxycarbonylamino-methyl)-2-oxo-oxazolidin-3-yl]-2-fluoro-phenyl}-piperazin-1-yl)-6-fluoro-4-oxo-1,4-dihydro-quinoline-3-carboxylic Acid] | 0.5 µg/mL (≈ 0.818 µM) | 32 µg/mL (≈ 52.3 µM) | 0.5 µg/mL (≈ 0.818 µM) | 1 µg/mL (≈ 1.64 µM) | 0.125 µg/mL (≈ 0.204 µM) | 4 µg/mL (≈ 6.54 µM) | 0.5 µg/mL (≈ 0.818 µM) | 1 µg/mL (≈ 1.64 µM) | 0.5 µg/mL (≈ 0.818 µM) | 1 µg/mL (≈ 1.64 µM)
CC(=O)NC[C@H]1CN(c2ccc(N3CCN(c4nc5c(cc4F)c(=O)c(C(=O)O)cn5-c4ccc(F)cc4F)CC3)c(F)c2)C(=O)O1 [EXAMP. 20, 7-(4-{4-[5-(S)-(acetylamino-methyl)-2-oxo-oxazolidin-3-yl]-2-fluoro-phenyl}-piperazin-1-yl)-1-(2,4-difluoro-phenyl)-6-fluoro-4-oxo-1,4-dihydro-[1,8]Naphthyridine-3-carboxylic Acid] | 2 µg/mL (≈ 3.06 µM) | > 64 µg/mL | 1 µg/mL (≈ 1.53 µM) | 1 µg/mL (≈ 1.53 µM) | 0.5 µg/mL (≈ 0.764 µM) | 2 µg/mL (≈ 3.06 µM) | 1 µg/mL (≈ 1.53 µM) | > 64 µg/mL | 1 µg/mL (≈ 1.53 µM) | 4 µg/mL (≈ 6.11 µM)
CC(=O)NC[C@H]1CN(c2ccc(N3CCN(c4c(F)cc5c(=O)c(C(=O)O)cn(CCF)c5c4F)CC3)c(F)c2)C(=O)O1 [EXAMP. 22, 7-(4-{4-[5-(S)-(acetylamino-methyl)-2-oxo-oxazolidin-3-yl]-2-fluoro-phenyl}-piperazin-1-yl)-6,8-difluoro-1-(2-fluoro-ethyl)-4-oxo-1,4-dihydro-quinoline-3-carboxylic Acid] | < 0.125 µg/mL | 64 µg/mL (≈ 106 µM) | 0.25 µg/mL (≈ 0.413 µM) | < 0.125 µg/mL | < 0.125 µg/mL | 2 µg/mL (≈ 3.3 µM) | < 0.125 µg/mL | 0.5 µg/mL (≈ 0.826 µM) | < 0.125 µg/mL | 0.5 µg/mL (≈ 0.826 µM)
CC(=O)NC[C@H]1CN(c2ccc(N3CCN(c4cc5c(cc4F)c(=O)c(C(=O)O)cn5C4CC4)CC3)c(F)c2)C(=O)O1 [EXAMP. 1 + 8, 7-(4-{4-[5-(S)-(acetylamino-methyl)-2-oxo-oxazolidin-3-yl]-2-fluoro-phenyl}-piperazin-1-yl)-1-cyclopropyl-6-fluoro-4-oxo-1,4-dihydro-quinoline-3-carboxylic Acid] | 0.125 µg/mL | 8 µg/mL | < 0.125 µg/mL | 0.125 µg/mL | 0.125 µg/mL | 0.25 µg/mL | 0.25 µg/mL | 0.25 µg/mL | < 0.125 µg/mL | 0.25 µg/mL
CC(=O)NC[C@H]1CN(c2ccc(N3CCOCC3)c(F)c2)C(=O)O1 [Linezolid, reference compound] | 2 µg/mL (≈ 5.93 µM) | > 64 µg/mL | 1 µg/mL (≈ 2.96 µM) | 2 µg/mL (≈ 5.93 µM) | 1 µg/mL (≈ 2.96 µM) | 16 µg/mL (≈ 47.4 µM) | 2 µg/mL (≈ 5.93 µM) | 2 µg/mL (≈ 5.93 µM) |  | 16 µg/mL (≈ 47.4 µM)

Results, then the compound that gave them:

MIC [1] | MIC [2] | MIC [3] | MIC [4] | MIC [5] | MIC [6] | MIC [7] | MIC [8] | MIC [9] | MIC [10] | Compound
< 0.125 µg/mL | 64 µg/mL (≈ 110 µM) | < 0.125 µg/mL | < 0.125 µg/mL | < 0.125 µg/mL | 2 µg/mL (≈ 3.43 µM) | 0.25 µg/mL (≈ 0.429 µM) | 0.25 µg/mL (≈ 0.429 µM) | < 0.125 µg/mL | 0.5 µg/mL (≈ 0.858 µM) | CC(=O)NC[C@H]1CN(c2ccc(N3CCN(c4nc5c(cc4F)c(=O)c(C(=O)O)cn5C4CC4)CC3)c(F)c2)C(=O)O1 [EXAMP. 21, 7-(4-{4-[5-(S)-(acetylamino-methyl)-2-oxo-oxazolidin-3-yl]-2-fluoro-phenyl}-piperazin-1-yl)-1-cyclopropyl-6-fluoro-4-oxo-1,4-dihydro-[1,8]Naphthyridine-3-carboxylic Acid]
2 µg/mL (≈ 3.28 µM) | > 64 µg/mL | 1 µg/mL (≈ 1.64 µM) | 1 µg/mL (≈ 1.64 µM) | 2 µg/mL (≈ 3.28 µM) | > 64 µg/mL | 4 µg/mL (≈ 6.55 µM) | 8 µg/mL (≈ 13.1 µM) | 1 µg/mL (≈ 1.64 µM) | 8 µg/mL (≈ 13.1 µM) | CCOC(=O)c1cn(C2CC2)c2nc(N3CCN(c4ccc(N5C[C@H](CNC(C)=O)OC5=O)cc4F)CC3)c(F)cc2c1=O [EXAMP. 16, 7-(4-{4-[5-(S)-(acetylamino-methyl)-2-oxo-oxazolidin-3-yl]-2-fluoro-phenyl}-piperazin-1-yl)-1-cyclopropyl-6-fluoro-4-oxo-1,4-dihydro-[1,8]Naphthyridine-3-carboxylic Acid Ethyl Ester]
0.5 µg/mL (≈ 0.837 µM) | 8 µg/mL (≈ 13.4 µM) | 0.25 µg/mL (≈ 0.418 µM) | 0.5 µg/mL (≈ 0.837 µM) | 0.25 µg/mL (≈ 0.418 µM) | 4 µg/mL (≈ 6.69 µM) | 0.25 µg/mL (≈ 0.418 µM) | 2 µg/mL (≈ 3.35 µM) | 0.25 µg/mL (≈ 0.418 µM) | 1 µg/mL (≈ 1.67 µM) | CC(=O)NC[C@H]1CN(c2ccc(N3CCN(c4c(F)cc5c(=O)c(C(=O)O)cn6c5c4OCC6C)CC3)c(F)c2)C(=O)O1 (stereo partly drawn) [EXAMP. 7, 9-(4-{4-[5-(S)-(acetylamino-methyl)-2-oxo-oxazolidin-3-yl]-2-fluoro-phenyl}-piperazin-1-yl)-8-fluoro-3-methyl-6-oxo-2,3-dihydro-6H-1-oxa-3a-aza-phenalene-5-carboxylic Acid]
8 µg/mL (≈ 12.5 µM) | 32 µg/mL (≈ 50.2 µM) | 4 µg/mL (≈ 6.27 µM) | 8 µg/mL (≈ 12.5 µM) | 4 µg/mL (≈ 6.27 µM) | 1 µg/mL (≈ 1.57 µM) | 4 µg/mL (≈ 6.27 µM) | > 64 µg/mL | 8 µg/mL (≈ 12.5 µM) | 2 µg/mL (≈ 3.14 µM) | C#CC(O)[C@H]1CN(c2ccc(N3CCN(c4nc5c(cc4F)c(=O)c(C(=O)O)cn5-c4ccc(F)cc4F)CC3)c(F)c2)C(=O)O1 (stereo partly drawn) [EXAMP. 19, 1-(2,4-difluoro-phenyl)-6-fluoro-7-(4-{2-fluoro-4-[5-(R)-(1-hydroxy-prop-2-inyl)-2-oxo-oxazolidin-3-yl]-phenyl}-piperazin-1-yl)-4-oxo-1,4-dihydro-[1,8]Naphthyridine-3-carboxylic Acid]
< 0.125 µg/mL | 64 µg/mL (≈ 109 µM) | < 0.125 µg/mL | < 0.125 µg/mL | < 0.125 µg/mL | 4 µg/mL (≈ 6.81 µM) | < 0.125 µg/mL | 0.5 µg/mL (≈ 0.851 µM) | < 0.125 µg/mL | 0.5 µg/mL (≈ 0.851 µM) | CCn1cc(C(=O)O)c(=O)c2cc(F)c(N3CCN(c4ccc(N5C[C@H](CNC(C)=O)OC5=O)cc4F)CC3)c(F)c21 [EXAMP. 3, 7-(4-{4-[5-(S)-(acetylamino-methyl)-2-oxo-oxazolidin-3-yl]-2-fluoro-phenyl}-piperazin-1-yl)-1-ethyl-6,8-difluoro-4-oxo-1,4-dihydro-quinoline-3-carboxylic Acid]
2 µg/mL (≈ 3.16 µM) | > 64 µg/mL | 0.5 µg/mL (≈ 0.789 µM) | 0.5 µg/mL (≈ 0.789 µM) | 1 µg/mL (≈ 1.58 µM) | 64 µg/mL (≈ 101 µM) | 2 µg/mL (≈ 3.16 µM) | 4 µg/mL (≈ 6.31 µM) | 1 µg/mL (≈ 1.58 µM) | 4 µg/mL (≈ 6.31 µM) | CCOC(=O)c1cn(CCF)c2c(F)c(N3CCN(c4ccc(N5C[C@H](CNC(C)=O)OC5=O)cc4F)CC3)c(F)cc2c1=O [EXAMP. 17, 7-(4-{4-[5-(S)-(acetylamino-methyl)-2-oxo-oxazolidin-3-yl]-2-fluoro-phenyl}-piperazin-1-yl)-6,8-difluoro-1-(2-fluoro-ethyl)-4-oxo-1,4-dihydro-quinoline-3-carboxylic Acid Ethyl Ester]
